Columns and labels:
Assay type in all cases: functional, cell-based
[1] = tested on: MDA-MB-435; assay: Antiproliferative activity against human MDA-MB-435 cells after 96 hrs; settings: MDA-MB-435, 96 h
[2] = Antiproliferative activity against human H522-T1 cells after 96 hrs; settings: H522-T1, 96 h
[3] = tested on: A2780; assay: Antiproliferative activity against human A2780 cells after 96 hrs; settings: A2780, 96 h
[4] = tested on: HT-29; assay: Antiproliferative activity against human HT29 cells after 96 hrs; settings: HT-29, 96 h
[5] = tested on: U-937; assay: Antiproliferative activity against human U937 cells after 96 hrs; settings: U-937, 96 h

IC50 [1]: 480 nM | IC50 [3]: 260 nM | IC50 [4]: 610 nM | IC50 [5]: 290 nM
SMILES: C=C[C@](C)(CC/C=C(\C)C(=O)O[C@H]1[C@H](O)[C@@H](O)[C@H](O[C@](C)(C=C)CC/C=C(\C)C(=O)O[C@H]2[C@H](O)[C@@H](O)[C@H](O[C@](C)(C=C)CC/C=C(/C)C(=O)O[C@H]3C[C@]4(C(=O)O[C@@H]5O[C@H](CO)[C@@H](O)[C@H](O)[C@H]5O[C@@H]5O[C@@H](C)[C@H](O[C@@H]6OC[C@@H](O)[C@H](O)[C@H]6O)[C@@H](O)[C@H]5O)[C@H](O)C[C@]5(C)C(=CC[C@@H]6[C@@]7(C)CC[C@H](O[C@@H]8O[C@H](CO[C@@H]9O[C@H](C)[C@H](O)[C@H](O)[C@H]9O)[C@@H](O)[C@H](O)[C@H]8O[C@@H]8O[C@H](CO)[C@@H](O)[C@H](O)[C@H]8O)C(C)(C)C7CC[C@]65C)[C@@H]4CC3(C)C)O[C@@H]2C)O[C@@H]1C)O[C@@H]1O[C@H](C)[C@@H](O)[C@H](O)[C@H]1O (stereo not given in full) [GUMMIFERAOSIDE C]
IC50 [2]: 640 nM
